Assay results published in paper PMC11220031, “Structural basis for the inhibition mechanism of LAT1-4F2hc complex by JPH203” (Cell Discovery, 2024).
Changes are numbered by the printed parent chain.

Columns and labels:
Assay in all cases: microscale thermophoresis (MST)
Conditions in all cases: read-out: binding affinity
LAT2–4F2hc complex [1] = target: T1, LAT2–4F2hc complex (Homo sapiens, UniProt Q9UHI5, F250Y)
T1 construct: gene SLC7A8; LAT2–4F2hc heteromeric complex used for MST; construct, host and tags only in supplement; with Amino acid transporter heavy chain SLC3A2 (4F2 cell-surface antigen heavy chain)
T1 sequence (Q9UHI5 1-535 F250Y): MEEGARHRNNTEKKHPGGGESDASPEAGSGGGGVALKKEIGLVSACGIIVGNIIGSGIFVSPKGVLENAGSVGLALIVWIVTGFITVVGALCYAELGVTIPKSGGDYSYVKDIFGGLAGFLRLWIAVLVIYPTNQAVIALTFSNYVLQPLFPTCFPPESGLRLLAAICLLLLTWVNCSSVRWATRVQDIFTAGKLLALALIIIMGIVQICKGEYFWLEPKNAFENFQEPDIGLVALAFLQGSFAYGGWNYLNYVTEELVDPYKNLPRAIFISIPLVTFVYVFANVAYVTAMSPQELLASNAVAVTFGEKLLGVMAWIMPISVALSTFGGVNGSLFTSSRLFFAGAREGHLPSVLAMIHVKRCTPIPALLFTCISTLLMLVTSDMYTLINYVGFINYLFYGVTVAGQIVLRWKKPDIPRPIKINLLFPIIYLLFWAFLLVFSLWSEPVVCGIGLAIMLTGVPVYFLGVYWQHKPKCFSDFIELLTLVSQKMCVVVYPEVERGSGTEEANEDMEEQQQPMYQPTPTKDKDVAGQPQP
T1 sequence (P08195 2-529 partner): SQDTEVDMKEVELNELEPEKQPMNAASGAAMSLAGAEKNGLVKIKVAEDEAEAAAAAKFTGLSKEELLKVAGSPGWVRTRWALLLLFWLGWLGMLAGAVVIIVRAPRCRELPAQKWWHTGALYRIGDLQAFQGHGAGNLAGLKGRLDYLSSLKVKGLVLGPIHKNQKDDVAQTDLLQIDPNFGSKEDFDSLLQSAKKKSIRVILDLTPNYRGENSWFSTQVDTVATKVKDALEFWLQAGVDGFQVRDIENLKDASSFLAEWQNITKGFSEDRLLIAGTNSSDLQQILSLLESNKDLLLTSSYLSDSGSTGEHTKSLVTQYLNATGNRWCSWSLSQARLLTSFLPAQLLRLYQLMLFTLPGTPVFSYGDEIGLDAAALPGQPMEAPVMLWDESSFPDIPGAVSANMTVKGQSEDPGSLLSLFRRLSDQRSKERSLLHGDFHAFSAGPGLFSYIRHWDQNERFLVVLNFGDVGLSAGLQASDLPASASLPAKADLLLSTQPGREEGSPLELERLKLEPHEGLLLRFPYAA

LAT2–4F2hc complex [2] = target: T2, LAT2–4F2hc complex (Homo sapiens, UniProt Q9UHI5, V391F)
T2 construct: gene SLC7A8; LAT2–4F2hc heteromeric complex used for MST; construct, host and tags only in supplement; with Amino acid transporter heavy chain SLC3A2 (4F2 cell-surface antigen heavy chain)
T2 sequence (Q9UHI5 1-535 V391F): T1 sequence (Q9UHI5 1-535 F250Y) with Y250F, V391F
T2 sequence (P08195 2-529 partner): T1 sequence (P08195 2-529 partner)

LAT1–4F2hc complex [3] = target: T3, LAT1–4F2hc complex (Homo sapiens, UniProt Q01650, Y259F)
T3 construct: gene SLC7A5; full-length LAT1–4F2hc heteromeric complex, purified by size-exclusion chromatography; host and tags only in supplement; with Amino acid transporter heavy chain SLC3A2 (4F2 cell-surface antigen heavy chain)
T3 sequence (Q01650 2-507 Y259F, one chain of several): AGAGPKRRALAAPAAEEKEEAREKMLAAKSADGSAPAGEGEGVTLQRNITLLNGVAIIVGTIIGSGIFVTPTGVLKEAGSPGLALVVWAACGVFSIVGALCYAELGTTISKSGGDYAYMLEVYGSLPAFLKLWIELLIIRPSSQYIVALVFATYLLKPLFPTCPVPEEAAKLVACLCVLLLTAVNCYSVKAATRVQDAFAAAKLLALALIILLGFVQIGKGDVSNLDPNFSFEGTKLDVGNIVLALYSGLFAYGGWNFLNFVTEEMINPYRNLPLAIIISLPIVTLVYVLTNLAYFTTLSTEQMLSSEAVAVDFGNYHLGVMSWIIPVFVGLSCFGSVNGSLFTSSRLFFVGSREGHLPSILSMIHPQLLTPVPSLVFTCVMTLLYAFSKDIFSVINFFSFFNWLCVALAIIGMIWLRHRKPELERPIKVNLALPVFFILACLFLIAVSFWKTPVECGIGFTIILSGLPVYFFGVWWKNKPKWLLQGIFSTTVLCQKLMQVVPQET

LAT1–4F2hc complex [4] = target: T4, LAT1–4F2hc complex (Homo sapiens, UniProt Q01650, F400V)
T4 construct: gene SLC7A5; full-length LAT1–4F2hc heteromeric complex, purified by size-exclusion chromatography; host and tags only in supplement; with Amino acid transporter heavy chain SLC3A2 (4F2 cell-surface antigen heavy chain)
T4 sequence (Q01650 2-507 F400V, one chain of several): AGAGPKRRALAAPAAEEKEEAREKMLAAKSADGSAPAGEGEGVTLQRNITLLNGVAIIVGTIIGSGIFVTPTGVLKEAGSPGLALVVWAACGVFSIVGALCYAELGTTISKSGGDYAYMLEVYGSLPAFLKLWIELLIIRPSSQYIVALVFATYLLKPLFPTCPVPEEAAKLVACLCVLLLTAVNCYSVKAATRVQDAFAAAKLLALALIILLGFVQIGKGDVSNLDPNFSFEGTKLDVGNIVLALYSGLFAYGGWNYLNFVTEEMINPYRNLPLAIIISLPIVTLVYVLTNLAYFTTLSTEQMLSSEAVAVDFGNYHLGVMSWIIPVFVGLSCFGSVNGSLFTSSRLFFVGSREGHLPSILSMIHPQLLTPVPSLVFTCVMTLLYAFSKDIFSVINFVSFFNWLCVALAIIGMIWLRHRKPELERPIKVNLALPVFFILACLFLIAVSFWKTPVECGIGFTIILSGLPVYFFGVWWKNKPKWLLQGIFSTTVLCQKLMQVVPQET

LAT1–4F2hc complex [5] = target: T5, LAT1–4F2hc complex (Homo sapiens, UniProt Q01650)
T5 construct: gene SLC7A5; full-length LAT1–4F2hc heteromeric complex, purified by size-exclusion chromatography; host and tags only in supplement; with Amino acid transporter heavy chain SLC3A2 (4F2 cell-surface antigen heavy chain)
T5 sequence (Q01650 2-507, one chain of several): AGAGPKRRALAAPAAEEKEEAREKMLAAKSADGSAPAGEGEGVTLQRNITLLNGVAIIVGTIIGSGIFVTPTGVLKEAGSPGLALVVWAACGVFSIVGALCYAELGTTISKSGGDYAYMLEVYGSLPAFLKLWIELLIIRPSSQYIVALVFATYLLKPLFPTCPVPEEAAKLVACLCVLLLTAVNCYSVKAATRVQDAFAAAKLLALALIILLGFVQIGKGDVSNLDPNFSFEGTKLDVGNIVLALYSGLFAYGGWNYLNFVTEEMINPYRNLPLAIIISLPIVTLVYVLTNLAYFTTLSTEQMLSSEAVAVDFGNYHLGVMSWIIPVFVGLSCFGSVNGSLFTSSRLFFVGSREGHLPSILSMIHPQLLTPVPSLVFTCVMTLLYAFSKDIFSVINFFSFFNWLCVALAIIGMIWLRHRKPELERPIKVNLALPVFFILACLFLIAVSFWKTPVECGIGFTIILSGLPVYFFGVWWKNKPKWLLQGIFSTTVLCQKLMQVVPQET

LAT2–4F2hc complex [6] = target: T6, LAT2–4F2hc complex (Homo sapiens, UniProt Q9UHI5)
T6 construct: gene SLC7A8; LAT2–4F2hc heteromeric complex used for MST; construct, host and tags only in supplement; with Amino acid transporter heavy chain SLC3A2 (4F2 cell-surface antigen heavy chain)
T6 sequence (Q9UHI5 1-535): T1 sequence (Q9UHI5 1-535 F250Y) with Y250F
T6 sequence (P08195 2-529 partner): T1 sequence (P08195 2-529 partner)

Kd (LAT2–4F2hc complex [1]): 2.55 ± 0.96 µM | Kd (LAT2–4F2hc complex [2]): 1.78 ± 0.65 µM | Kd (LAT1–4F2hc complex [3]): 3.81 ± 1.26 µM | Kd (LAT1–4F2hc complex [4]): 6.21 ± 1.58 µM | Kd (LAT1–4F2hc complex [5]): 1.48 ± 0.28 µM | Kd (LAT2–4F2hc complex [6]): 4.51 ± 1.35 µM
SMILES: Nc1cc(COc2c(Cl)cc(C[C@H](N)C(=O)O)cc2Cl)c2oc(-c3ccccc3)nc2c1 [JPH203]
